What was measured:
[1] = system: cancer cell lines with high baseline expression of interferon stimulated genes; conditions: cited from earlier work
[2] = system: type I interferon responses; conditions: both in vitro and in vivo; cited from earlier work
tumour = conditions: animal models; cited from earlier work
[3] = biological target: T1, recombinant human Flag-tagged PARP7 (amino acids 456-657) (Homo sapiens, UniProt Q7Z3E1); test: PARP7 biochemical DELFIA assay (auto-MARylation); conditions: DELFIA readout, IC50 class
T1 construct: recombinant human Flag-tagged PARP7 (amino acids 456-657)
T1 sequence (Q7Z3E1 456-657): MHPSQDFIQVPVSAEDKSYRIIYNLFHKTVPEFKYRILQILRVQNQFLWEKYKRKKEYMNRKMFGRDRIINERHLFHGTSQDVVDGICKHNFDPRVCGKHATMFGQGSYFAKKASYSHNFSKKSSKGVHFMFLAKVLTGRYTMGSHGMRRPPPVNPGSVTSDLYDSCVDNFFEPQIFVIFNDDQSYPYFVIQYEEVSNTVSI
How it was run: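 Flag-PARP7 (456-657), 12.5-37.5 nM stock, captured on anti-FLAG wells, preincubated 30 min with compound, then auto-MARylated with biotin-NAD+ (15 μM stock) in HEPES pH 7.5/NaCl/DTT/BSA/Tween for 2-3 h at room temperature. NAD+ quench; Eu-streptavidin DELFIA read, Ex337/Em620 nm.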

[4] = system: CT26 colorectal cancer cells; test: Induction of IFNβ in cancer cell supernatants (mouse IFNβ ELISA), CT26; type: cell-based, murine; conditions: 10 μM compound 177 alone or in combination with chemotherapeutic agents, 24 hours, FIG. 1
Description: (§1) Selected compounds were also tested for their ability to induce type I interferon (interferon β, IFNβ) production in cancer cells as a cell-based measure of PARP7 inhibition and its effects on stimulating the STING pathway signalling. […] Such data highlight the therapeutic utility of combining PARP7 inhibitors with chemotherapy or other agents that can induce aberrant cytosolic nucleic acids in order to further enhance an anti-tumour immune response.
(§2) CT26 and MC38 cells were seeded in 96-well microplates each at a density of 30,000 cells per well. Following overnight incubation, cells were treated with either DMSO, 10 μM compound 177, or various chemotherapeutic agents (final DMSO concentration of 0.2% v/v). Cells were also treated with 10 μM compound 177 in combination with various chemotherapeutic agents. After 24 hours, IFNβ was measured from cell supernatants using a sandwich enzyme linked immunosorbent assay (ELISA) assay kit (PBL Assay Sciences, catalogue number 42410-2) according to manufacturer's instructions.

[5] = system: MC38 colorectal cancer cells; test: Induction of IFNβ in cancer cell supernatants (mouse IFNβ ELISA), MC38; type: cell-based, murine; conditions: 10 μM compound 177 alone or in combination with chemotherapeutic agents, 24 hours, FIG. 1
Description: as §1, §2

SMILES	IC50 [3] [nM]	other results
C[C@@H](COCCC(=O)N1CCN(c2ncc(C(F)(F)F)cn2)CC1)Nc1cn[nH]c(=O)c1C(F)(F)F [RBN-2397]		inhibition of proliferation [1]: potently inhibited proliferation; type I interferon responses [2]: restored type I interferon responses; tumour regression and specific anti-tumour immunity (tumour): tumour regression
O=C(c1cccc(OCc2cccc3c(=O)[nH]ncc23)c1)N1CCN(c2ncc(C(F)(F)F)cn2)CC1 [Compound 94]	1000 to 10000	
O=C(CCOCC(c1cccc2c(=O)[nH]ncc12)C(F)(F)F)N1CCN(c2ncc(C(F)(F)F)cn2)CC1 (single isomer, unassigned) [Compound 427]	100 to 1000	
CC(COCCC(=O)N1CCN(c2ccc(C3COC3)cn2)CC1)n1nc(C(F)(F)F)c2c(=O)[nH]ncc21 (single isomer, unassigned) [Compound 311]	100 to 1000	
O=C1NCCn2c(CCOCCC(=O)N3CCN(c4ncc(C(F)(F)F)cn4)CC3)ccc21 [Compound 128]	100 to 1000	

Continued, in another order:

IC50 [3] [nM]	SMILES	other results
≤ 100	CC(COCCC(=O)N1CCN(c2ncc(C(F)(F)F)cn2)CC1)n1nc(C(F)(F)F)c2c(=O)[nH]ncc21 (single isomer, unassigned) [Compound 177, 1-(1-(3-oxo-3-(4-(5-(trifluoromethyl)pyrimidin-2-yl)piperazin-1-yl)propoxy)propan-2-yl)-3-(trifluoromethyl)-1,5-dihydro-4H-pyrazolo[3,4-d]pyridazin-4-one]	induction of IFNβ in cell supernatants [4]: induction of IFNβ; induction of IFNβ in cell supernatants [5]: induction of IFNβ
100 to 1000	N#Cc1ccc(N2CCN(C(=O)CCOCCn3ncc4c(=O)[nH]ncc43)CC2)nc1 [Compound 92]	
≤ 100	CC(COCCC(=O)N1CCN(c2nc(C#N)co2)CC1)n1nc(C(F)(F)F)c2c(=O)[nH]ncc21 (single isomer, unassigned) [Compound 319]	
≤ 100	O=C(CCOCCc1cccc2c(=O)[nH]ncc12)N1CCN(c2ncc(F)cn2)CC1 [Compound 99]	
≤ 100	CC(COCCC(=O)N1CCN(c2cc(Cl)c(F)cn2)CC1)n1nc(C(F)(F)F)c2c(=O)[nH]ncc21 (single isomer, unassigned) [Compound 445]	
≤ 100	O=C(CCOCCn1nc(C(F)(F)F)c2c(=O)[nH]ncc21)N1CCN(c2nc(C(F)(F)F)cs2)CC1 [Compound 299]	
≤ 100	CC(COCCC(=O)N1CCN(c2ncc(C(C)(C)C)cn2)CC1)n1cc(C(F)(F)F)c2c(=O)[nH]ncc21 (single isomer, unassigned) [Compound 498]	
≤ 100	CC(COCCn1cc(C(F)(F)F)c2c(=O)[nH]ncc21)C(=O)N1CCN(c2ncc(C(F)(F)F)cn2)CC1 (centres unmarked) [Compound 412]	

— patent publication US20240217968A1, “PHARMACEUTICAL COMPOUND” (DUKE STREET BIO LIMITED, priority 2021, published 2024)
